Assay results reported in article PMC11459959, “Discovery of new acetamide derivatives of 5-indole-1,3,4-oxadiazol-2-thiol as inhibitors of HIV-1 Tat-mediated viral transcription” (Antimicrobial Agents and Chemotherapy, 2024).

How the values were obtained:
[1] = test system: Tat protein; assay: Tat protein level in transfected HeLa cells, western blotting; details: HeLa cells transfected with pcDNA3-Flag-Tat86, 1.5 µM, 2 days
Method: (C) HeLa cells were transfected with pcDNA3-Flag-Tat86 plasmid. […] The levels of Tat protein were analyzed by western blotting using antibodies against Flag and α-tubulin.
The protein levels of the cell lysates were analyzed using western blotting as previously described ([12]). In brief, whole-cell lysates and samples fractionated in nuclear or cytoplasm were prepared with a 5× SDS sample buffer and subsequently subjected to SDS-polyacrylamide gel electrophoresis. Proteins were subsequently transferred onto polyvinylidene difluoride membranes (Millipore).

[2] = test system: HIV-1NL4-3; assay: HIV-1 infectivity in TZM-bl cells (β-gal activity); format: cell-based; details: Human immunodeficiency virus 1, TZM-bl, 48 h, read-out: EC50 (β-gal)
Method: (C) TZM-bl cells were infected with the HIV-1NL4-3 strain at an MOI of 1 upon treatment of compounds. At 48 h after infection, the viral infectivity and cell viability were determined as described above (Fig. 1). […] (E) TZM-bl cells were infected with the HIV-1NL4-3 at an MOI of 1 upon compound 13. At 48 h after infection, the β-gal activity indicating viral infectivity was determined using the β-gal Enzyme Assay kit. […] (C and E) The dose-response curves show the relative activity compared with that of the DMSO vehicle (mean ± SD; n = 3).
The TZM-bl cells (also referred to as JC53BL-13) expressing human CD4, CXCR4, and CCR5 carrying the F-Luc and lacZ genes downstream of the HIV-1 LTR promoter ([60]) were used to determine the inhibitory effect of the compounds on HIV-1 infection, as previously described ([11], [12], [61]). In brief, 1 × 10^4 cells were cultured in 96-well plates for 24 h and subsequently treated with compounds at the indicated concentrations. […] After 48 h, the inhibitory effect of the compounds was determined using a Bright Glo luciferase assay kit (Promega) or β-Galactosidase Enzyme Assay kit (Promega). […] Cell viability was determined using the resazurin-based PrestoBlue Cell Viability Reagent (Thermo Fisher Scientific, Waltham, MA, USA) following the manufacturer’s instructions.

[3] = test system: HIV-1 transcripts; assay: RNA-seq of HIV-1 transcripts in infected TZM-bl cells; format: cell-based; details: HIV-1NL4-3 MOI 1, 1.5 µM, 2 days
Method: At 48 h after infection, the total RNA was extracted using the Maxwell RSC simplyRNA Cells Kit (Promega) according to the manufacturer’s instructions. RNA integrity was evaluated as RNA integrity number >6 using the Agilent 2100 Bio-analyzer (Agilent Technologies, Santa Clara, CA, USA). The cDNA libraries were constructed using TruSeq Stranded mRNA Sample Preparation Kit (Illumina, San Diego, CA, USA) according to the manufacturer’s instructions. Subsequently, these cDNA libraries were sequenced on the Illumina sequencing platform (NovaSeq6000; Illumina) and 150 bp paired-end reads were generated. Trimmomatic (v.0.32) was used to eliminate low-quality reads and adapter sequences from the sequencing data ([64]). Subsequently, the filtered reads were aligned to the HIV-1 genome (accession: AF324493.2) using STAR (v.2.3.0) ([65]). RT-qPCR analyses were performed as previously described ([66]) with some minor modifications. […] After infection, the infected cells were treated with 1.5 µM of the compounds. Forty-eight hours after treatment, the viral mRNA was isolated, converted to cDNA, and quantified through RT-qPCR on a 7500 Real-Time PCR System (Applied Biosystems) using the Power SYBR Green PCR Master Mix (Applied Biosystems). The comparative cycle threshold (Ct) method was used to analyze relative changes (Δ) in gene expression. The ΔCt values were determined using a 7500 Real-Time PCR System Software (Applied Biosystems) normalizing with gapdh, and the gene expression was calculated using the ΔΔCt-method. The primers used in this assay are the following: gag forward, 5′-[…]-3′, gag reverse, 5′-[…]-3′; gapdh forward, 5′-[…]-3′, gapdh reverse, 5′-[…]-3′.

[4] = test system: PI-resistant HIV-1 strain 11803; assay: microbe, parasite or virus in culture; format: cell-based; details: Human immunodeficiency virus 1, PBMC
From the text: (§1) The Tzm-bl-derived dual Tat reporter; TZM-bl/Tat/Rluc (bl-DTR) cells were established from TZM-bl cells using two Dox-inducible lentiviral expression cassettes cloned with Flag-tagged Tat86 and the R-Luc gene, as described in our previous study ([11]). TZM-bl, A3.01, J1.1, and J-Lat 6.3 cells as well as the HIV-1 molecular clone pNL4-3, pNL(AD8), ARV-resistant HIV-1 strains, and HIV-1NL43-IRES-eGFP (pBR43IeG-nef^+, gifted by Dr. Frank Kirchhoff) ([52]) were provided by the National Institute of Health HIV Reagent Program (NIH, Bethesda, MD, USA). HeLa (CCL-2) and 293T (CRL-3216) cell lines were purchased from the American Type Culture Collection (ATCC, Manassas, VA, USA). The bl-DTR, TZM-bl, HeLa, and 293T cells were cultured in Dulbecco’s modified Eagle’s medium supplemented with 1% penicillin–streptomycin and 10% (vol/vol) heat-inactivated fetal bovine serum (all from Gibco-BRL, Gaithersburg, MD, USA), and 1 µg/mL of puromycin and 200 µg/mL of zeocin were additionally supplemented for the bl-DTR cells. PBMCs were purchased from AllCells (Alameda, CA, USA) and cultured as previously described ([12]). The information on ARV-resistant HIV-1 strains was described in previous reports as follows: NNRTI-resistant 12241 and 12243 ([53]); NRTI-resistant 7396, 7406, and 7407 ([54]); INSTI-resistant 11847 and 11849 ([55], [56]); and PI-resistant 11800 and 11803 ([57]). Each molecular HIV-1 clone was transfected to 293T cells, as previously described ([58]), to obtain infectious HIV-1 particles. Virus-containing cell culture supernatants were collected 3 days after transfection, and filtered through a 0.45-µm membrane filter (Millipore Sigma, Burlington, MA, USA) to remove cell debris. The viral titration was performed as described previously ([59]) with some minor modifications. In brief, 1 × 10^4 TZM-bl cells seeded in 96-well plates were infected with 200 µL of virus-containing medium diluted serially twofold. The incubation was for 2 days and the experiment was performed in triplicate; the infection time minimized the virus spread ([59]). The titration of the infectious viral particles was performed with a ß-Gal staining assay using the ßeta-Galactosidase Staining Kit (Mirus Bio, Madison, WI, USA) following the manufacturer’s protocols. In brief, the infected cells were washed with phosphate-buffered saline (PBS) and fixed using a Cell Fixative Working solution. The cells were washed with PBS and stained using the Cell Staining Working Solution containing X-gal. The infected blue-colored cells were counted under a microscope (100× magnification). The infectious virus titer was determined as a mean value of blue-colored cells count × dilution factor and used for determining the multiplicity of infection (MOI) in each infection experiment.
(§2) The inhibitory effects of the compounds on viral replication were determined with some minor modifications, as previously described ([12], [62]). […] PBMCs (4 × 10^5) pre-activated with PHA-M for 3 days were washed with fresh media to remove excess PHA-M and subsequently infected with HIV-1NL4-3 or HIV-1AD8 or PIs-resistant HIV-1 strains as A3.01 infection. After infection, the infectious media were replaced with fresh media supplemented with international 10 units (IU)/mL of IL-2 and the indicated compounds. At 72 h after infection, the inhibitory effect of the compounds on viral replication was determined by measuring the p24 amount, an HIV capsid protein, using an HIV-1 p24 […] kit (PerkinElmer, Waltham, MA, USA). Cell viability was determined as described above. The inhibitory effects on provirus reversing in J1.1 and J-Lat 6.3 cells were determined as previously described ([12], [41], [63]) with some minor modifications.

[5] = test system: PI-resistant HIV-1 strain 11800; assay: microbe, parasite or virus in culture; format: cell-based; details: Human immunodeficiency virus 1, PBMC
From the text: as §1, §2

SMILES	decrease of expression of Tat protein [1]	EC50 [2] [nM]	read counts of transcripts mapped to the HIV-1 genome [3]	EC50 [4] [nM]	EC50 [5] [nM]
Cc1[nH]c2ccc(-c3nnc(SCC(=O)N4CCCC4)o3)cc2c1C [Compound 13, 2-((5-(2,3-Dimethyl-1H-indol-5-yl)-1,3,4-oxadiazol-2-yl)thio)-1-(pyrrolidin-1-yl)ethan-1-one]	did not exhibit a decrease	220 ± 30	substantially reduced	280 ± 40	810 ± 30
Cc1[nH]c2ccc(-c3nnc(SCC(=O)N4CCCCC4)o3)cc2c1C [Compound 9, 2-((5-(2,3-Dimethyl-1H-indol-5-yl)-1,3,4-oxadiazol-2-yl)thio)-1-(piperidin-1-yl)ethan-1-one]	did not exhibit a decrease	–	substantially reduced	260 ± 80	540 ± 250
